{"source": "patent US8008298B2", "about": "“Pyrrolopyrazine kinase inhibitors” (Roche Palo Alto, priority 2008, dated 2011)", "assay_type_in_all_cases": "biochemical", "key": {"[1]": {"biological_target": "JAK3: Recombinant human kinase domain (Homo sapiens, UniProt P52333)", "sequence (P52333 822-1111 limits assumed)": "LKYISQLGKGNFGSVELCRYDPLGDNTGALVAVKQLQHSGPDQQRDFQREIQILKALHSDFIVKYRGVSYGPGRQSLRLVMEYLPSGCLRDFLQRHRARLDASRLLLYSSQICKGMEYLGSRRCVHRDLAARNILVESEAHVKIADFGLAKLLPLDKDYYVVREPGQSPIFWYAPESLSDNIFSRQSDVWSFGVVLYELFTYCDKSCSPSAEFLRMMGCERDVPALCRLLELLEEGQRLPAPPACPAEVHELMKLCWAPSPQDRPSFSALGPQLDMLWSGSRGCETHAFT", "assay": "JAK3 kinase inhibition, radioactive end-point assay", "details": "0.5 nM or 0.2 nM JAK3, ATP 1.5 uM, peptide 50 uM, 20 minutes, room temperature; read-out: IC50 h-jak3-sf21-c", "excerpt": "(§1) Determination of IC50 of Janus Kinase (JAK) Inhibition: […]"}, "[2]": {"biological_target": "JAK2: Recombinant human kinase domain (Homo sapiens, UniProt O60674)", "sequence (O60674 849-1124 limits assumed)": "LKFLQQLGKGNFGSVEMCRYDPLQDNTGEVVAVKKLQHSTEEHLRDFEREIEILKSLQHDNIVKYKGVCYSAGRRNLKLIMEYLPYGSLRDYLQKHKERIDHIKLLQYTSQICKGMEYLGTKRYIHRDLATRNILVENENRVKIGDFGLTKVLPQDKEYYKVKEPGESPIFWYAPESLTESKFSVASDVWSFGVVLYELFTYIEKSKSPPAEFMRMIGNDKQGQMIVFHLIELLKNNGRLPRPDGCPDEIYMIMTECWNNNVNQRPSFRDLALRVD", "assay": "JAK2 kinase inhibition, radioactive end-point assay", "details": "1 nM JAK2, ATP 1.5 uM, peptide 50 uM, 20 minutes, room temperature; read-out: IC50 h-jak2-sf21-c", "excerpt": "as §1"}, "[3]": {"biological_target": "T1, recombinant human SYK360-635 (Homo sapiens, UniProt P43405)", "T1 construct": "truncated construct of Spleen Tyrosine Kinase aa 360-635; made in house", "assay": "SYK kinase assay, 33P ATP incorporation into biotinylated peptide", "details": "0.5 nM SYK aa 360-635, ATP 20 μM, peptide 5 μM, 15 min at 30° C.; read-out: IC50 h-syk (360-635)-baculovirus-c", "procedure": "SYK Assay Information Determination of IC50 of Spleen Tyrosine Kinase (SYK) Inhibition:\nSYK kinase assay is a standard kinase assay adapted to a 96 well plate format. This assay is performed in 96-well format for IC50 determination with 8 samples which represented 10 half log dilutions and a 40 μL reaction volume. The assay measures the incorporation of radiolabeled ^33P γATP into an N-terminally biotinylated peptide substrate, derived from naturally occurring phosphoacceptor consensus sequence (Biotin-11aa DY*E). Phosphorylated products were detected upon termination of reactions with EDTA and the addition of Streptavidin coated beads. […]\nThe unbound radionucleotides were washed under vacuum with 3×250 μL 2M NaCl; 2×250 μL 2M NaCl+1% phosphoric acid; 1×250 μL H2O. After the last wash membrane/plates were transferred to an adaptor plate, heat dried for 15 min at 60° C., and 50 μL scintillation cocktail was added to each well and 4 h later the amount of radioactivity was counted in a top counter.\nThe percent inhibition was calculated based on the uninhibited enzyme rate: % Inhibition=100/(1+(IC50/Inhibitor cone)^n) • The IC50 was calculated using a non-linear curve fit with XLfit software (ID Business Solution Ltd., Guilford, Surrey, UK)."}, "[4]": {"biological_target": "JAK1: Recombinant human kinase domain (Homo sapiens, UniProt P23458)", "sequence (P23458 875-1153 limits assumed)": "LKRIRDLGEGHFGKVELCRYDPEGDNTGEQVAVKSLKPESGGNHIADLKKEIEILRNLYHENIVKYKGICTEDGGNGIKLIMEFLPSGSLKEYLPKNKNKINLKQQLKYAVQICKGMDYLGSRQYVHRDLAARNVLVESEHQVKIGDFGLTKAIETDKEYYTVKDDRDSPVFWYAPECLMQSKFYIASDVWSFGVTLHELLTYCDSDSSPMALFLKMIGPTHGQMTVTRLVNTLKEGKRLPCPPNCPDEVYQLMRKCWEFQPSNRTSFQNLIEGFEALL", "assay": "JAK1 kinase inhibition, radioactive end-point assay", "details": "5 nM JAK1, ATP 10 uM, peptide 50 uM, 40 minutes, room temperature; read-out: IC50 h-jak1-sf21-c", "excerpt": "as §1"}}, "data": [{"smiles": "COc1cc(-c2cnc3[nH]cc(C(=O)C4(C)CCCCC4)c3n2)cc(OC)c1OC", "note": "[Example I-117, (1-Methyl-cyclohexyl)-[2-(3,4,5-trimethoxy-phenyl)-5H-pyrrolo[2,3-b]pyrazin-7-yl]-methanone]", "values": [{"measurement": "IC50", "setting": "[1]", "result": 6.8, "unit": "nM"}, {"measurement": "IC50", "setting": "[2]", "result": 107, "unit": "nM"}, {"measurement": "IC50", "setting": "[3]", "result": 162, "unit": "nM"}]}, {"smiles": "COc1cc(-c2cnc3[nH]cc(C(=O)NCC(C)OC)c3n2)cc(OC)c1OC", "note": "(centres unmarked) [Example I-82, 2-(3,4,5-Trimethoxy-phenyl)-5H-pyrrolo[2,3-b]pyrazine-7-carboxylic acid (2-methoxy-propyl)-amide]", "values": [{"measurement": "IC50", "setting": "[4]", "result": 90, "unit": "nM"}, {"measurement": "IC50", "setting": "[1]", "result": 4.6, "unit": "nM"}, {"measurement": "IC50", "setting": "[2]", "result": 10.8, "unit": "nM"}, {"measurement": "IC50", "setting": "[3]", "result": 36, "unit": "nM"}]}, {"smiles": "COc1cc(-c2cnc3[nH]cc(C(=O)C(C)(C)C)c3n2)cc(OC)c1OC", "note": "[Example I-12, 2,2-Dimethyl-1-[2-(3,4,5-trimethoxy-phenyl)-5H-pyrrolo[2,3-b]pyrazin-7-yl]-propan-1-one]", "values": [{"measurement": "IC50", "setting": "[1]", "result": 56.1, "unit": "nM"}, {"measurement": "IC50", "setting": "[2]", "result": 455, "unit": "nM"}, {"measurement": "IC50", "setting": "[3]", "result": 317, "unit": "nM"}]}, {"smiles": "CC(C)(C)C(=O)c1c[nH]c2ncc(-c3cccc(N4CCCC4)c3)nc12", "note": "[Example I-64, 2,2-Dimethyl-1-[2-(3-pyrrolidin-1-yl-phenyl)-5H-pyrrolo[2,3-b]pyrazin-7-yl]-propan-1-one]", "values": [{"measurement": "IC50", "setting": "[4]", "result": 2100, "unit": "nM"}, {"measurement": "IC50", "setting": "[1]", "result": 24.1, "unit": "nM"}, {"measurement": "IC50", "setting": "[2]", "result": 3440, "unit": "nM"}, {"measurement": "IC50", "setting": "[3]", "result": 1310, "unit": "nM"}]}]}
